The values that follow come from the NIST ThermoML archive (doi:10.1016/j.tca.2013.10.035).

The nature of series [1]: Molar enthalpy of transition or fusion. The settings on record: DSC.
For series [2] the following is noted: DTA.

± gives the expanded uncertainty stated by the source.

As for `CC(C)NCC(O)COc1ccc(CC(N)=O)cc1` (stereo not given) [2-(4-(2-hydroxy-3-(isopropylamino)propoxy)phenyl)acetamide], in series [1] (Crystal), the “Molar enthalpy of transition or fusion” value was 8.99 ± 0.239 kcal/mol. The Normal melting temperature in series [2] (Crystal) was found to be 152.8 ± 0.5 °C.

Turning to `COc1ccccc1OCC(O)COC(N)=O` (stereo not given) [2-hydroxy-3-(2-methoxyphenoxy)propyl carbamate], the “Molar enthalpy of transition or fusion” value in series [1] (Crystal) is 9.23 ± 0.263 kcal/mol. For the same molecule, the Normal melting temperature in series [2] (Crystal) worked out at 95.4 ± 0.5 °C. Further, the Glass transition temperature in series [2] came out at 3.2 ± 0.5 °C.

Consider `Cc1ccccc1OCC(O)CO` (stereo not given) [3-(2-methylphenoxy)-1,2-propanediol], for which the “Molar enthalpy of transition or fusion” value in series [1] (Crystal 1) was found to be 7.12 ± 0.215 kcal/mol. Besides, the Normal melting temperature in series [2] (Crystal 1) was determined as 70.0 ± 0.5 °C. The Glass transition temperature in series [2] is -34.5 ± 0.5 °C.

Regarding `COc1ccc2cc([C@H](C)C(=O)O)ccc2c1` [(S)-(+)-naproxen], the “Molar enthalpy of transition or fusion” value in series [1] (Crystal) is 6.93 ± 0.191 kcal/mol. In addition, the Normal melting temperature in series [2] (Crystal) came to 153.6 ± 0.5 °C.

Regarding `CC(=O)Nc1ccc(O)cc1` [N-acetyl-p-aminophenol], the “Molar enthalpy of transition or fusion” value in series [1] (Crystal 1) came to 6.21 ± 0.191 kcal/mol; in series [1] (Metastable crystal), 5.95 ± 0.167 kcal/mol. Moreover, the Normal melting temperature in series [2] (Crystal 1) turned out to be 169.2 ± 0.5 °C; in series [2] (Metastable crystal), 156.7 ± 0.5 °C. For the same molecule, the Glass transition temperature in series [2] was 21.2 ± 0.5 °C.
